Laboratory results reported in patent US20250171744A1, “METHODS OF REPROGRAMMING SOMATIC CELLS AND MATERIALS RELATED THERETO” (CITY OF HOPE, priority 2019, published 2025).

Columns and labels:
[1] = Cell viability after MTX or PTX treatment (FIG. 17); type: cell-based; conditions: human; for viability: post MTX or PTX treatment; for viability at 5 days: HEK293T cells, after 5-days of MTX or PTX treatment, read-out: viable cells
Description: Call quantification, imaging, and statistical analysis: Cells were quantified using a Cellometer Auto T4 counting chamber after mixing in a 1:1 ratio with Trypan blue (MilliporeSigma) to exclude dead cells. The average of 2 separate counts was taken to calculate the cell numbers. All live cell imaging was conducted using an EVOS FL Auto microscope (Thermo Fisher Scientific). All statistical analysis was performed using a paired Student's t test with Bonferroni correction or 1-sample Student's t test. Values of P<0.05 were considered significant.

293T cells [2] = assay: Embryoid body formation from SSEA4 positive sorted cells (FIG. 27); type: cell-based, human
Description: (§1) HEK293T and HF57 were treated with MTX and PTX for 7 or more days in low methionine condition. SSEA4 positive cells were sorted using cell sorter and maintained on mTeSR™ Plus medium supplemented with HT.
293T cells were treated with MTX and/or PTX for 10 or more days. SSEA4 positive cells were sorted using single cell sorter and maintained on mTeSR1 medium. […] FIGS. 28-29 show the three-germ layer immunostaining of putative pluripotent stem cells derived from 293T cells treated with MTX and PTX.

HF57 cells [3] = assay: Histone methylation levels (FIG. 19); type: cell-based, human; conditions: vs control
Description: (§2) Calculation of methylation level (based on OD values as shown on y-axis) was performed according to manufacturer's instructions. Representative histogram from three independent experiments are shown. All data are presented as the mean±standard error (SE) of triplicate measurements. *P<0.05, ***P<0.001.

HEK293T cells = assay: Histone methylation levels (FIG. 19); type: cell-based, human; conditions: vs control
Description: as §2

HF57 cells [4] = assay: Transcriptomics (RNAseq) of MTX and PTX treated cells (FIG. 20); type: cell-based, human; conditions: for pluripotency markers significantly enriched: compared to controls
Description: RNAseq data validated that application of MTX and PTX affected C1 metabolism in the treated cells. […] The global transcriptional change across the groups compared was visualized by a volcano plot (FIGS. 20A-20B). Each data point in the scatter plot represents a gene. The log 2 fold change of each gene is represented on the x-axis and the log 10 of its adjusted p-value is on the y-axis. Genes with an adjusted p-value less than 0.05 and a log 2 fold change greater than 1 are indicated by red dots. […] Genes with an adjusted p-value less than 0.05 and a log 2 fold change less than −1 are indicated by green dots. […] Heat map visualization of the selected 67 differentially expressed genes. Original values are ln(x)-transformed. Rows are centered; unit variance scaling is applied to rows. Red indicates higher expression, whereas low expression indicated in green (FIG. 20C). For visual clarity, expression of selected genes is presented in groups based on their relative values (FIG. 20D).
The quiescent nature of the MTX and PTX cells and the association of demethylation with the generation of induced pluripotent stem cells led to examining markers for stem cells formation. The 293T and HF57 cells were grown on 5% dialyzed FBS DMEM medium. DMEM without methionine, DMEM with 15 mg/L (half dose) and DMEM with 30 mg/L (regular DMEM) were used to grow the cells. Once the cells attained 70% confluency, HF57 were treated with 1-μM MTX or PTX and HEK293T were treated with 500 nM MTX or 1 μM PTX. The cells were treated with MTX or PTX for 7-days, and subsequently the medium was replaced with N2B27 medium (Thermo Fisher Scientific, USA). The cells were grown in N2B27 medium for 15 days which supported undifferentiated growth of human embryonic stem cells. Subsequently, these cells were maintained in MTeSR medium supplemented with sodium hypoxanthine and thymidine (HT) for 15 or more days. These conditions supported prolonged self-renewal of putative pluripotent cells, and they were able to form colonies and later embryoid bodies in vitro. Subsequently, the cells were assessed for markers linked to stem cells. Transcriptomics and qRT-PCR were performed to examine whether ES cell marker genes were expressed in these cells. Both MTX and PTX treated cells expressed the marker genes (FIGS. 20-21 and 25-26). […] To authenticate these findings, two key pluripotency markers (SSEA-4 and TRA 1-60) were examined using immunofluorescence.

HF57 = assay: Embryoid body formation from SSEA4 positive sorted cells (FIG. 27); type: cell-based, human; conditions: treated 7 or more days, low methionine, mTeSR Plus + HT, after 15-days
Description: as §1

293T cells [5] = assay: qRT-PCR relative transcript levels of ANKRD1 and ANOS (FIG. 22, 23); type: cell-based, human; conditions: vs control cells
Description: To validate microarray results, quantitative 2-step RT-PCR was performed. One microgram of total RNA was reverse transcribed to first-strand cDNA with the Qiagen cDNA Synthesis Kit (Qiagen), and this cDNA was subsequently used as a template for quantitative PCR with gene-specific primers. The ubiquitous β-actin gene served as a control for constitutive gene expression. The quantitative RT-PCR (qRT-PCR) reactions were performed using Power Sybr Green PCR Master Mix (Thermo Fisher Scientific) on a CFX96 Touch Real-Time PCR Detection System (Bio-Rad, Hercules, CA, USA). Relative expression levels (2^−ΔCt) were calculated according to the Livak and Schmittgen method (40). Expression levels of each gene were compared with the expression level of actin.

[6] = system: MTX/PTX treated, SSEA4 positive cells; assay: Neural differentiation (FIG. 30); type: cell-based, human; conditions: neural differentiation medium, laminin coated plates, 10-15-days
Description: For neural differentiation, MTX/PTX treated, SSEA4 positive cells were initially grown onto Matrigel-coated 6-well plates in mTeSR1 medium. To induce neural differentiation, the cells were dissociated and passaged onto laminin (20 μg ml−1; Sigma-Aldrich, USA) coated plates and grown in Neurobasal medium (Thermo Fisher Scientific, USA) or RPMI1640 medium (Gibco, USA) for 10-15-days at 37° C./5% CO2. The medium was supplemented with 1% serum free B-27 (Gibco, USA), 1% Glutamax (Gibco, USA), 1% NEAA (Gibco, USA), and 1% penicillin/streptomycin (Gibco, USA).

[7] = treated 7 or more days, low methionine, mTeSR Plus + HT, after 15-days
[8] = treated 10 or more days, mTeSR1 medium, after 10-days

SMILES: CN(Cc1cnc2nc(N)nc(N)c2n1)c1ccc(C(=O)N[C@@H](CCC(=O)O)C(=O)O)cc1 [MTX, methotrexate]
- viability ([1]; HDF fibroblast cell line): 60 to 75%
- viability at 5 days [1]: 20 to 25%
- viability ([1]; HF57 fibroblast cell line): 60 to 75%
- embryoid body formation (293T cells [2]; [7]): formed embryoid bodies
- embryoid body formation (293T cells [2]; [8]): started forming embryoid bodies
- Dimethyl H3-K9 methylation (HF57 cells [3]): significantly reduced
- global histone H3-K4 methylation (HF57 cells [3]): significantly reduced
- Dimethyl H3-K9 methylation (HEK293T cells): significantly reduced
- global histone H3-K4 methylation (HEK293T cells): significantly reduced
- LIN28A enrichment compared to controls (HF57 cells [4]): 6 fold
- NANOG enrichment compared to controls (HF57 cells [4]): 6 fold
- SOX2 enrichment compared to controls (HF57 cells [4]): 5 fold
- one carbon-metabolism and DNA methylation related genes significantly down-regulated (HF57 cells [4]): about 41 genes
- one carbon-metabolism and DNA methylation related genes upregulated (HF57 cells [4]): 9 genes
- pluripotency markers significantly enriched (HF57 cells [4]): about 50
- embryoid body formation (HF57): start forming embryoid bodies
- relative transcripts level of ANOS (293T cells [5]): significantly higher
- relative transcripts level of Ankyrin repeat domain 1 (ANKRD1) (293T cells [5]): significantly higher
- differentiation into neural cells [6]: can differentiate into neural cells

SMILES: Nc1nc2[nH]cc(CCc3ccc(C(=O)N[C@@H](CCC(=O)O)C(=O)O)cc3)c2c(=O)[nH]1 [PTX, pemetrexed]
- viability ([1]; HDF fibroblast cell line): 60 to 75%
- viability at 5 days [1]: 20 to 25%
- viability ([1]; HF57 fibroblast cell line): 60 to 75%
- embryoid body formation (293T cells [2]; [7]): formed embryoid bodies
- embryoid body formation (293T cells [2]; [8]): started forming embryoid bodies
- Dimethyl H3-K9 methylation (HF57 cells [3]): significantly reduced
- global histone H3-K4 methylation (HF57 cells [3]): significantly reduced
- Dimethyl H3-K9 methylation (HEK293T cells): significantly reduced
- global histone H3-K4 methylation (HEK293T cells): significantly reduced
- LIN28A enrichment compared to controls (HF57 cells [4]): 6 fold
- NANOG enrichment compared to controls (HF57 cells [4]): 6 fold
- SOX2 enrichment compared to controls (HF57 cells [4]): 5 fold
- one carbon-metabolism and DNA methylation related genes significantly down-regulated (HF57 cells [4]): about 41 genes
- one carbon-metabolism and DNA methylation related genes upregulated (HF57 cells [4]): 9 genes
- pluripotency markers significantly enriched (HF57 cells [4]): about 50
- embryoid body formation (HF57): start forming embryoid bodies
- relative transcripts level of ANOS (293T cells [5]): significantly higher
- relative transcripts level of Ankyrin repeat domain 1 (ANKRD1) (293T cells [5]): significantly higher
- differentiation into neural cells [6]: can differentiate into neural cells
